# Data published in patent US20190365776A1, “THERAPEUTIC AGENT FOR OCULAR FUNDUS DISEASE” (KYUSHU UNIVERSITY, NATIONAL UNIVERSITY CORPORATION, priority 2013, published 2019).
# Assays:
# [1] = test system: mice OIR (Oxygen-Induced Retinopathy) model; assay: Mice OIR (oxygen-induced retinopathy) model, flat-mounted retina; type: in vivo, C57BL/6JJcl mice; conditions: ocular instillation 20 μL three times a day, day 12 to day 17 after birth, flat mount
# Procedure: The effectiveness of (S)-(−)-1-(4-fluoro-5-isoquinolinesulfonyl)-2-methyl-1,4-homopiperazine (compound 1) in a mice OIR model commonly used as a model of ischemic retinopathy such as diabetic retinopathy was examined in the following manner. Compound 1 solutions: 0.4% solution, 0.8% solution (instillation volume: 20 μL) Fasudil solution: 0.4% solution (instillation volume: 20 μL) Test animals: C57BL/6JJcl mice (sex: male, 8 to 14 mice per group) C57BL/6JJcl mice born on the same day were reared in a 75%-oxygen environment from day 7 after birth, and were then transferred to a normal indoor environment on day 12 after birth to start administration by ocular instillation. Test groups were a saline instillation group (control), a 0.4% compound 1 solution instillation group, a 0.8% compound 1 solution instillation group, and a 0.4% fasudil solution instillation group, and saline, the compound 1 solution, or the fasudil solution was administered by ocular instillation three times a day. On day 17 after birth, ischemic retinal areas (non-perfused areas) and neovascular areas were quantified for evaluation by flat-mounting or fluorescein fundus angiography. More specifically, 1 g/kg of pentobarbital (Nembutal) was administered intraperitoneally for euthanasia under deep anesthesia, and then both eyeballs were excised and fixed with 4% paraformaldehyde (PFA) at 37° C. for 1 hour, and the corneal limbus was circumferentially incised to remove the cornea and iris from the eyeball. Then, after fixation with 4% PFA at 37° C. for 1 hour, the lens, sclera, and choroid were removed, and the eye cup including the retina was isolated. Further, the retina was fixed with 4% PFA at 37° C. for 3 hours, washed with PBS three times (15 min per wash, 37° C.), dehydrated (methanol 50% 100%, 10 min per methanol treatment, 37° C.), washed with PBS three times (15 min per wash, 37° C.), and blocked with Blocking Buffer (1% BSA, 0.5% Triton-X in PBS) for 60 minutes (37° C.). Then, the retina was treated with a primary antibody (0.7% FITC-conjugates Anti-lectin Ab in PBS, 4° C., overnight) and washed with PBS three times (15 min per wash, 37° C.). Then, 4 to 6 cuts were radially made in the eye cup, and the flat-mounted retina was covered with Crystal Mount. Then, the image of the flat-mounted retina was taken with a fluorescence microscope (BZ-9000, KEYENCE Corp, Osaka, Japan), and the proportion of the non-perfused area to the entire retina and the proportion of the neovascular area to the entire retina were calculated by the following formulas in NIH image J software. The thus obtained values were converted to relative values by regarding the obtained values of the saline instillation group (control) as 100%, and statistical analysis was performed by Wilcoxon test. Non-perfused area=area of avascular region/area of entire retina Neovascular area=area of neovascular region/area of entire retina
# [2] = test system: mice CNV (Choroidal Neovascularization) model; assay: Mice CNV (choroidal neovascularization) model, laser photocoagulation; type: in vivo, C57BL/6JJcl mice; conditions: ocular instillation three times a day, day 0 to day 7, control 109177±26399
# Procedure: The effectiveness of the compound 1 in a mice CNV model known as a model of age-related macular degeneration or the like was examined in the following manner.
# Compound 1 solutions prepared in the same manner as in Example 1: 0.4% solution, 0.8% solution (instillation volume: 20 μL)
# Test animals: C57BL/6JJcl mice (6- to 10-week old, sex: male, 11 to 12 mice per group)
# The preparation of a CNV model and evaluation were performed with reference to a literature (e.g., J. Leukoc. Biol. 2003; 74: 25-32, or Am. J. Pathol. 1998; 153: 1641-1646). More specifically, each of the mice was given tropicamide by ocular instillation to cause mydriasis, anesthetized by intraperitoneal administration of 100 mg/kg of Ketalar and 10 mg/kg of Selactar, and subjected to photocoagulation at 4 spots per eye. The photocoagulation was performed by krypton laser irradiation (75-μm spot size, 0.1 seconds duration, 200 mW) with a slit-lamp delivery system using a cover glass as a contact lens. Test groups were a saline instillation group (control), a 0.4% compound 1 solution instillation group, and a 0.8% compound 1 solution instillation group. […] More specifically, a spot with bleeding or tissue destruction was excluded, the CNV volume of each spot adopted was calculated by NIS-Elements AR Version 4.13, and then an average value (μm^3) per eye was calculated.
# Kimba (trVEGF029) mice = assay: Kimba (trVEGF029) mice, fluorescein fundus angiography and optical coherence tomography; type: in vivo; conditions: 0.8% solution, ocular instillation three times a day for 2 weeks
# Procedure: The effectiveness of the compound 1 in Kimba (trVEGF029) mice known as mice transgenic for VEGF gene, which develop retinal neovascularization, was examined in the following manner.
# Compound 1 solution prepared in the same manner as in Example 1: 0.8% solution (instillation volume: 20 μL)
# Test animals: Kimba mice (available from Lions Eye Institute Ltd., 6 mice per group)
# One-month-old Kimba mice born on the same day were given saline (control) or the 0.8% compound 1 solution by ocular instillation three times a day for 2 weeks, and were then subjected to fluorescein fundus angiography and optical coherence tomography under anesthesia for evaluation. More specifically, in fluorescein fundus angiography, each of the mice was first given tropicamide by ocular instillation to cause mydriasis and then anesthetized by intraperitoneal administration of 100 mg/kg of Ketalar and 10 mg/kg of Selactar, given 6 μL/g of a contrast agent for fluorescein fundus angiography by intraperitoneal injection, and subjected to fluorescein fundus angiography using Heidelberg Retina Angiograph (HRA, Heidelberg, Germany). […]
smiles,measurement,setting,value
"C[C@H]1CNCCCN1S(=O)(=O)c1cccc2cncc(F)c12 [compound 1, (S)-(−)-1-(4-fluoro-5-isoquinolinesulfonyl)-2-methyl-1,4-homopiperazine]",relative value of the neovascular area (saline instillation group = 100%),[1]; 0.4% solution,58.2%
same,relative value of the non-perfused area (saline instillation group = 100%),[1]; 0.4% solution,77.0%
same,relative value of the neovascular area (saline instillation group = 100%),[1]; 0.8% solution,52.7%
same,relative value of the non-perfused area (saline instillation group = 100%),[1]; 0.8% solution,58.1%
same,"CNV volume (mean±standard error, average per eye)",[2]; 0.4% solution,56408±9007 μm^3
same,"CNV volume (mean±standard error, average per eye)",[2]; 0.8% solution,88387±33678 μm^3
same,edema (fluorescein fundus angiography / optical coherence tomography images),Kimba (trVEGF029) mice,suppression of edema is observed
same,average maximum retinal thickness (mean±standard error),"Kimba (trVEGF029) mice; optical coherence tomography, saline control 361.8±36.1",256.7±35.7 μm
